{
  "source": "patent US12472196B2",
  "about": "“Use of DNMT inhibitor” (priority 2019, dated 2025)",
  "key": {"cytidine deaminase": {"target": "cytidine deaminase (Homo sapiens, UniProt P32320)", "sequence (P32320 whole entry)": "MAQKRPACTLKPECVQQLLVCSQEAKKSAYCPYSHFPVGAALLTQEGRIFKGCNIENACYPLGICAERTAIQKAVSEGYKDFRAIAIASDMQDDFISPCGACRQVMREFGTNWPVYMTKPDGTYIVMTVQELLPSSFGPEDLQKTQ", "assay": "Stability against cytidine deaminase (HPLC)", "method": "About 1 mg of a silyl etherified derivative of 5-aza-2′-deoxycytidine in carbohydrate moiety (see formula (I)) was dissolved in 1 mL of acetonitrile. 10 μL of the solution was added to 1 mL of PBS. 10 μl of a PBS solution of cytidine deaminase was added to the obtained solution and stirred at 37° C. for about 1 hour. 1 mL of acetonitrile was added to the reaction solution and centrifuged. The supernatant was analyzed with HPLC.\nCytidine deaminase: CDA (1-146aa), Human, His-tagged, Recombinant cytidine deaminase (ATGen) • HPLC conditions: • Column: CAPCELL PAK ADME (4.6 mm×150 mm, particle size: 3 μm) • Elution: eluate A=Purified water containing 10 mM ammonium formate • Eluate B=Acetonitrile • Gradient mode: A:B=99:1→5:95/30 minutes • Flow rate: 1.0 mL/min • Oven temperature: 40° C. • Detection: UV240 nm"}, "[1]": {"test_system": "CpG island of LINE-1 in BV173 cell line", "assay": "DNA demethylation effect: CpG methylation ratio of LINE-1 by pyrosequencing", "type": "cell-based", "settings": "BV173, 72 hours", "method": "The methylation ratio of cytosine moiety of CpG island of LINE-1 (long interspersed nucleotide factor −1) was determined by using a method of pyrosequencing.\nSolutions of silyl etherified derivatives of 5-aza-2′-deoxycytidine in carbohydrate moiety (for example, Compound F: 5′-O-(triethylsilyl)-5-aza-2′-deoxycytidine) at concentrations of 0.1 nM, 1.0 nM, 5.0 nM, 10.0 nM, and 50.0 nM were added, respectively to a solution containing BV173 cell line (about 50,000 cells/mL), and cultured in a RPMI-1640 medium (containing 10% FBS and Penn-strep) for 72 hours. Then, DNA was extracted from the cells and treated with hydrogensulfite. CpG methylation ratio of LINE-1 was determined (see Table 4)."}, "[2]": {"assay": "Non-enzymatic hydrolysis in PBS solution at 37° C. (HPLC)", "type": "physicochemical", "method": "A silyl etherified derivative of 5-aza-2′-deoxycytidine in carbohydrate moiety (see formula (I)), for example, 5′-O-(triethylsilyl)-5-aza-2′-deoxycytidine (Compound F) (about 1 mg) was dissolved in 1 mL of acetonitrile. 5 μL of the solution was added to 100 μL of a PBS solution (10 mM), and stirred at 37° C. The reactant was analyzed over the time with HPLC.\nHPLC conditions were same as those in test example 1."}, "BV173": {"test_system": "BV173", "assay": "cells", "method": "(§1) The CML cell line (BV173, MYL, Ba/F3 BCR-ABL^WT) and the TKI-resistant CML cell line (MYL-R, Ba/F3 BCR-ABL^T315I) in the Table below were seeded in 96-well plates at 3,000-7,000 cells/100 μL/well in a culture solution (10% FBS and RPMI-1640) and cultured under 5% CO2 gas flow at 37° C. for about 3 hours. Then, 100 μL of each compound diluted with the culture solution to 50-0.05 μM MYL, Ba/F3 BCR-ABL^WT, MYL-R, Ba/F3 BCR-ABL^T315I and 500 nM-0.1 nM BV173 was added to the above 96-well plates and cultured for 24 hours, followed by centrifugation (4° C., 1500 rpm, 5 minutes). The supernatant of the culture solution was discarded. 100 μL each of the compounds diluted with the culture solution was added again and cultured further for 24 hours (48 hours totally). The same procedure was repeated. After further culturing for 24 hours (72 hours totally) and reaction using CCK-8 reagent (DOJINDO, CK04) according to its attached instruction, the absorption at 450 nm and 620 nm (blank) of each well was determined with a plate reader (Varioskan Flash, Thermo-Fisher Scientific Co. Ltd.). The values of the wells without sample treatment were taken as 100%, and those of the wells treated with the samples were expressed as relative values. The values of IC50 (μm) were calculated (see Table 3-1). In addition, IC50 ratio of MYL-R cell line to MYL cell line and that of Ba/F3 BCR-ABL^T315I cell line to Ba/F3 BCR-ABL^WT cell line were calculated (see Table 3-2)."}, "MYL": {"test_system": "MYL", "assay": "cells", "settings": "72 h, read-out: IC50 MYL", "method": "as §1"}, "Ba/F3 BCR-ABL^WT": {"test_system": "Ba/F3 BCR-ABL^WT", "assay": "cells", "settings": "Mus musculus, BaF3, 72 h, read-out: IC50 Ba/F3 BCR-ABL^WT", "method": "as §1"}, "Ba/F3 BCR-ABL^T315I": {"test_system": "Ba/F3 BCR-ABL^T315I", "assay": "cells", "method": "as §1\n(§2) MYL-R cell line is an MYL cell line in which Lyn is overexpressed, and Ba/F3 BCR-ABL^T315I cell line is the one in which ABLT315I mutation is introduced into Ba/F3 BCR-ABL^WT cell line. They both have acquired resistance to TKI."}, "MYL-R": {"test_system": "MYL-R", "assay": "cells", "method": "as §1, §2"}},
  "note": "Like-named read-outs stand apart in the source and are kept apart here.",
  "data": [
    {"compound": "Nc1ncn([C@H]2C[C@H](O)[C@@H](CO)O2)c(=O)n1", "note": "[5-Aza-2′-deoxycytidine]", "values": [
      {"measurement": "Change in HPLC pattern", "setting": "cytidine deaminase", "result": "The peak for starting material disappeared"},
      {"measurement": "stability to cytidine deaminase (in words)", "setting": "cytidine deaminase", "result": "disappeared completely"},
      {"measurement": "time within which decomposed in the presence of cytidine deaminase", "setting": "cytidine deaminase; under the condition used", "result": "≤ 30", "unit": "min"}
    ]},
    {"compound": "CC[Si](CC)(CC)OC[C@H]1O[C@@H](n2cnc(N)nc2=O)C[C@@H]1O", "note": "[Compound F, 5′-O-(Triethylsilyl)-5-aza-2′-deoxycytidine]", "values": [
      {"measurement": "Methylation ratio", "setting": "[1]; 0.1 nM", "result": 89.3, "unit": "%"},
      {"measurement": "Methylation ratio", "setting": "[1]; 1.0 nM", "result": 89.7, "unit": "%"},
      {"measurement": "Methylation ratio", "setting": "[1]; 5.0 nM", "result": 88.0, "unit": "%"},
      {"measurement": "Methylation ratio", "setting": "[1]; 10.0 nM", "result": 82.3, "unit": "%"},
      {"measurement": "Methylation ratio", "setting": "[1]; 50.0 nM", "result": 60.0, "unit": "%"},
      {"measurement": "5-Aza-2′-deoxycytidine (%) After 4 hours", "setting": "[2]; 10 mM PBS, 4 hours, desilyl form produced", "result": 10, "unit": "%"},
      {"measurement": "5-Aza-2′-deoxycytidine (%) After 8 hours", "setting": "[2]; 10 mM PBS, 8 hours, desilyl form produced", "result": 12, "unit": "%"},
      {"measurement": "5-Aza-2′-deoxycytidine (%) After 24 hours", "setting": "[2]; 10 mM PBS, 24 hours, desilyl form produced", "result": 48, "unit": "%"},
      {"measurement": "non-enzymatic hydrolysis in PBS solution (in words)", "setting": "[2]; PBS", "result": "the corresponding desilyl form (5-aza-2′-deoxycytizine: R^1 and R^2 are hydrogen atoms in formula (I)) was produced almost without other decomposition products"},
      {"measurement": "anti-CML activity (in words)", "setting": "BV173; CML cell lines of Table 3-1 (BV173, MYL, Ba/F3 BCR-ABL^WT)", "result": "very high anti-CML activity"},
      {"measurement": "IC50", "setting": "BV173; Homo sapiens, BV-173, 72 h, read-out: IC50 BV173", "result": 5, "unit": "nM"},
      {"measurement": "IC50", "setting": "MYL", "result": 280, "unit": "nM"},
      {"measurement": "IC50", "setting": "Ba/F3 BCR-ABL^WT", "result": 580, "unit": "nM"},
      {"measurement": "Change in HPLC pattern", "setting": "cytidine deaminase; PBS with recombinant human cytidine deaminase, 37° C., about 1 hour", "result": "Almost no change in the peak for"},
      {"measurement": "IC50", "setting": "Ba/F3 BCR-ABL^T315I; Mus musculus, BaF3, 72 h, read-out: IC50 Ba/F3 BCR-ABL^T315I", "result": 780, "unit": "nM"},
      {"measurement": "IC50 ratio Ba/F3 BCR-ABL^T315I/BCR-ABL^WT", "setting": "Ba/F3 BCR-ABL^T315I; ratio of IC50 in Ba/F3 BCR-ABL^T315I to Ba/F3 BCR-ABL^WT", "result": 1.4},
      {"measurement": "IC50", "setting": "MYL-R; 72 h, read-out: IC50 MYL-R", "result": 790, "unit": "nM"},
      {"measurement": "anti-CML activity against MYL-R strain compared with reference nucleosides (in words)", "setting": "MYL-R; MYL-R", "result": "considerably higher than that in the case of 5-aza cytidine"},
      {"measurement": "anti-TKI-resistant CML activity (in words)", "setting": "MYL-R; TKI-resistant CML cell lines of Table 3-1 (MYL-R, Ba/F3 BCR-ABL^T315I)", "result": "anti-TKI-resistant CML activity"},
      {"measurement": "IC50 ratio MYL-R/MYL", "setting": "MYL-R; ratio of IC50 in MYL-R to MYL", "result": 2.8}
    ]}
  ]
}
